This is an account of results in US9867833B2, “Serine/threonine kinase inhibitors” (GENENTECH, INC., priority 2013, dated 2018).

What is called IC50 is the concentration at which inhibition is half-maximal. The low end stands for inhibition by little substance, the high end for a need for much substance.

The target in the experiment is human ERK-2 (Mitogen Activated Kinase 1) (Homo sapiens (Human), UniProt P28482). Briefly: ERK-2 Enzymatic Assay. Format: biochemical. To be noted: human ERK-2 enzyme 5 nM, 25 μM ATP, S/T17 peptide substrate; isomer = configuration of CR2R3. The procedure: Compounds were tested in an enzymatic assay using human ERK-2 (Mitogen Activated Kinase 1), recombinantly expressed as an n-terminal 6-His fusion protein in E. coli and corresponding to aa 8-360. […] Test compounds were diluted in DMSO in 3-fold serial dilutions at 100× final concentrations. […] The data collected from each well was fit to a straight line, and the resulting rates were used to calculate percent of control. Percent of control was plotted against compound concentration, and IC50 values were determined using a four-parameter fit.
human ERK-2 (Mitogen Activated Kinase 1), sequence (P28482 8-360): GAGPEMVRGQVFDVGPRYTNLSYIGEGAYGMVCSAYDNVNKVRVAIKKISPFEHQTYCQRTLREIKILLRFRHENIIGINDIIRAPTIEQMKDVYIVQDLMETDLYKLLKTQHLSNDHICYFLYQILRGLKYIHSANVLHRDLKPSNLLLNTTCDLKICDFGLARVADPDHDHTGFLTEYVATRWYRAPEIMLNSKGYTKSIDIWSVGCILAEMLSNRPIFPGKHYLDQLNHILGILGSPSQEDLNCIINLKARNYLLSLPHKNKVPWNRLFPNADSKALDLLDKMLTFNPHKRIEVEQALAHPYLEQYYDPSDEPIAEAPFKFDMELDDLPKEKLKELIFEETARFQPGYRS
On to `Cn1nccc1Nc1nccc(-c2cc3n4c(nnc4c2)[C@H](Cc2ccc(Cl)cc2)CCO3)n1` [(R) I-36, 4-(9-(4-chlorobenzyl)-8,9-dihydro-7H-6-oxa-1,2,2a^1-triazabenzo[cd]azulen-4-yl)-N-(1-methyl-1H-pyrazol-5-yl)pyrimidin-2-amine], for which the IC50 stood at 0.69 nM.
Next, `Cn1nccc1Nc1cc(-c2cc3n4c(nnc4c2)[C@@H](Cc2ccccc2)CO3)ccn1` [(R) I-38, 4-(3-benzyl-3,4-dihydro-5-oxa-1,2,2a^1-triazaacenaphthylen-7-yl)-N-(1-methyl-1H-pyrazol-5-yl)pyridin-2-amine]: 0.02 nM; `CN1C(=O)C[C@@H](Cc2ccc(Cl)cc2)c2nnc3cc(-c4ccnc(Nc5ccnn5C)c4)cc1n23` [(R) I-40, 9-(4-chlorobenzyl)-6-methyl-4-(2-((1-methyl-1H-pyrazol-5-yl)amino)pyridin-4-yl)-8,9-dihydro-1,2,2a^1,6-tetraazabenzo[cd]azulen-7(6H)-one]: 1.35 nM.
Next, `Cn1nccc1Nc1nccc(-c2cc3n4c(nnc4c2)[C@@H](Cn2cc(Cl)cn2)CCO3)n1` [(R) I-42, (R)-4-(9-((4-chloro-1H-pyrazol-1-yl)methyl)-8,9-dihydro-7H-6-oxa-1,2,2a^1-triazabenzo[cd]azulen-4-yl)-N-(1-methyl-1H-pyrazol-5-yl)pyrimidin-2-amine]: 0.079 nM; `COc1ncccc1C[C@@H]1CN(C)c2cc(-c3ccnc(Nc4ccnn4C)n3)cc3nnc1n23` [(R) I-43, 4-(3-((2-methoxypyridin-3-yl)methyl)-5-methyl-4,5-dihydro-3H-1,2,2a^1,5-tetraazaacenaphthylen-7-yl)-N-(1-methyl-1H-pyrazol-5-yl)pyrimidin-2-amine]: 120 nM.
`Cn1nccc1Nc1nccc(-c2cc3n4c(nnc4c2)[C@@H](Cc2ccc(F)cc2)CO3)n1` [(R) I-44, 4-(3-(4-fluorobenzyl)-3,4-dihydro-5-oxa-1,2,2a^1-triazaacenaphthylen-7-yl)-N-(1-methyl-1H-pyrazol-5-yl)pyrimidin-2-amine]: the IC50 was under 0.02 nM.
Next, `CC(C)C[C@H]1COc2cc(-c3ccnc(Nc4ccnn4C)n3)cc3nnc1n23` [(R) I-45, 4-(3-isobutyl-3,4-dihydro-5-oxa-1,2,2a^1-triazaacenaphthylen-7-yl)-N-(1-methyl-1H-pyrazol-5-yl)pyrimidin-2-amine]: under 0.02 nM; `COc1ccc(C[C@H]2COc3cc(-c4ccnc(Nc5ccnn5C)n4)cc4nnc2n34)cc1F` [(R) I-46, 4-(3-(3-fluoro-4-methoxybenzyl)-3,4-dihydro-5-oxa-1,2,2a^1-triazaacenaphthylen-7-yl)-N-(1-methyl-1H-pyrazol-5-yl)pyrimidin-2-amine]: under 0.02 nM.
In the case of `Cn1nccc1Nc1cc(-c2cc3n4c(nnc4c2)[C@@H](Cn2cc(Cl)cn2)CCO3)ccn1` [(R) I-47, 4-(9-((4-chloro-1H-pyrazol-1-yl)methyl)-8,9-dihydro-7H-6-oxa-1,2,2a^1-triazabenzo[cd]azulen-4-yl)-N-(1-methyl-1H-pyrazol-5-yl)pyridin-2-amine] it was under 0.02 nM; in that of `Cn1nccc1Nc1cc(-c2cc3n4c(nnc4c2)[C@@H](Cc2ccc(Cl)cc2)CO3)ccn1` [(R) I-48, 4-(3-(4-chlorobenzyl)-3,4-dihydro-5-oxa-1,2,2a^1-triazaacenaphthylen-7-yl)-N-(1-methyl-1H-pyrazol-5-yl)pyridin-2-amine], under 0.02 nM; in that of `COc1ccc(C[C@H]2COc3cc(-c4ccnc(Nc5ccnn5C)n4)cc4nnc2n34)cc1` [(R) I-50, 4-(3-(4-methoxybenzyl)-3,4-dihydro-5-oxa-1,2,2a^1-triazaacenaphthylen-7-yl)-N-(1-methyl-1H-pyrazol-5-yl)pyrimidin-2-amine], 0.02 nM.
Next, `Cn1nccc1Nc1cc(-c2cc3n4c(nnc4c2)[C@@H](Cc2ccc(F)c(F)c2)CO3)ccn1` [(R) I-54, 4-(3-(3,4-difluorobenzyl)-3,4-dihydro-5-oxa-1,2,2a^1-triazaacenaphthylen-7-yl)-N-(1-methyl-1H-pyrazol-5-yl)pyridin-2-amine]: 0.03 nM; `Cn1nccc1Nc1nccc(-c2cc3n4c(nnc4c2)[C@@H](Cn2cc(C4CC4)cn2)CCO3)n1` [(R) I-56, 4-(9-((4-cyclopropyl-1H-pyrazol-1-yl)methyl)-8,9-dihydro-7H-6-oxa-1,2,2a^1-triazabenzo[cd]azulen-4-yl)-N-(1-methyl-1H-pyrazol-5-yl)pyrimidin-2-amine]: under 0.02 nM.
Compound `Cn1nccc1Nc1nccc(-c2cc3n4c(nnc4c2)[C@H](Cc2ccc(F)cc2)CCO3)n1` [(R) I-58, 4-(9-(4-fluorobenzyl)-8,9-dihydro-7H-6-oxa-1,2,2a^1-triazabenzo[cd]azulen-4-yl)-N-(1-methyl-1H-pyrazol-5-yl)pyrimidin-2-amine] displayed an IC50 of under 0.02 nM.
Next, `COc1ccc(C[C@@H]2CC(=O)N(C)c3cc(-c4ccnc(Nc5ccnn5C)n4)cc4nnc2n34)cc1` [(R) I-62, 9-(4-methoxybenzyl)-6-methyl-4-(2-((1-methyl-1H-pyrazol-5-yl)amino)pyrimidin-4-yl)-8,9-dihydro-1,2,2a^1,6-tetraazabenzo[cd]azulen-7(6H)-one]: under 0.02 nM.
In the case of `CCC[C@@H]1CC(=O)N(C)c2cc(-c3ccnc(Nc4ccnn4C)n3)cc3nnc1n23` [(R) I-64, 6-methyl-4-(2-((1-methyl-1H-pyrazol-5-yl)amino)pyrimidin-4-yl)-9-propyl-8,9-dihydro-1,2,2a^1,6-tetraazabenzo[cd]azulen-7(6H)-one] it was 183 nM; in that of `CN1C(=O)C[C@H](C2CC2)c2nnc3cc(-c4ccnc(Nc5ccnn5C)n4)cc1n23` [(R) I-65, 9-cyclopropyl-6-methyl-4-(2-((1-methyl-1H-pyrazol-5-yl)amino)pyrimidin-4-yl)-8,9-dihydro-1,2,2a^1,6-tetraazabenzo[cd]azulen-7(6H)-one], 0.66 nM; in that of `Cn1nccc1Nc1nccc(-c2cc3n4c(nnc4c2)[C@H](Oc2ccc(F)cc2)CCO3)n1` [(R) I-66, 4-(9-(4-fluorophenoxy)-8,9-dihydro-7H-6-oxa-1,2,2a^1-triazabenzo[cd]azulen-4-yl)-N-(1-methyl-1H-pyrazol-5-yl)pyrimidin-2-amine], 2.95 nM.
In the case of `CN1C(=O)C[C@H](CC(F)(F)F)c2nnc3cc(-c4ccnc(Nc5ccnn5C)n4)cc1n23` [(R) I-71, 6-methyl-4-(2-((1-methyl-1H-pyrazol-5-yl)amino)pyrimidin-4-yl)-9-(2,2,2-trifluoroethyl)-8,9-dihydro-1,2,2a^1,6-tetraazabenzo[cd]azulen-7(6H)-one] it was 0.655 nM.
The compound `COc1ccc(C[C@@H]2CC(=O)N(C)c3cc(-c4ccnc(Nc5ccnn5C)c4)cc4nnc2n34)c(F)c1` [(R) I-74, 9-(2-fluoro-4-methoxybenzyl)-6-methyl-4-(2-((1-methyl-1H-pyrazol-5-yl)amino)pyridin-4-yl)-8,9-dihydro-1,2,2a^1,6-tetraazabenzo[cd]azulen-7(6H)-one] gave an IC50 of under 0.02 nM.
In the case of `CC(C)C[C@@H]1CC(=O)N(C)c2cc(-c3ccnc(Nc4ccnn4C)c3)cc3nnc1n23` [(R) I-75, 9-isobutyl-6-methyl-4-(2-((1-methyl-1H-pyrazol-5-yl)amino)pyridin-4-yl)-8,9-dihydro-1,2,2a^1,6-tetraazabenzo[cd]azulen-7(6H)-one] it was 3.22 nM.
